According to patent EP0021678B1, “1-Sulpho-2-oxoazetidine derivatives, their production and pharmaceutical compositions thereof” (Takeda Chemical Industries, Ltd., priority 1979, dated 1981):
Where two headings read alike, the source gives them in different places.

Key:
Test in all cases: Anti-bacterial test, minimum inhibitory concentration on agar
Type in all cases: cell-based
[1] = system: Acinetobacter calcoaceticus IFO 13006; details: IFO13006; Acinetobacter calcoaceticus IFO 13006; medium TSA; read-out: Minimum inhibitory concentration
Summary of the method: (§1)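 MIC values come from an agar plate method using either plain or blood Trypticase soy agar.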

[2] = system: Escherichia coli T-7; details: T7, medium TSA
Summary of the method: as §1

[3] = system: Klebsiella pneumoniae DT; details: Klebsiella pneumoniae DT; medium TSA; read-out: Minimum inhibitory concentration
Summary of the method: as §1

[4] = system: Proteus morganii IFO 3168; details: Morganella morganii, IFO3168; Proteus morganii IFO 3168; medium TSA; read-out: Minimum inhibitory concentration
Summary of the method: as §1

[5] = system: Escherichia coli O—111; details: medium TSA
Summary of the method: as §1

[6] = system: Staphylococcus aureus 1840; details: Staphylococcus aureus 1840; medium TSA; read-out: Minimum inhibitory concentration
Summary of the method: as §1

[7] = system: Proteus mirabilis IFO 3849; details: IFO3849; Proteus mirabilis IFO 3849; medium TSA; read-out: Minimum inhibitory concentration
Summary of the method: as §1

[8] = system: Staphylococcus aureus 308A—1; details: read-out: Minimum inhibitory concentration
Summary of the method: as §1

[9] = system: Serratia marcescens IFO 12648; details: IFO12648; Serratia marcescens IFO 12648; medium TSA; read-out: Minimum inhibitory concentration
Summary of the method: as §1

[10] = system: Pseudomonas aeruginosa IFO 3455; details: IFO3455; Pseudomonas aeruginosa IFO 3455; medium TSA; read-out: Minimum inhibitory concentration
Summary of the method: as §1

[11] = system: Proteus vulgaris IFO 3988; details: IFO3988; Proteus vulgaris IFO 3988; medium TSA; read-out: Minimum inhibitory concentration
Summary of the method: as §1

[12] = system: Corynebacterium diphtheriae Toronto; details: Corynebacterium diphtheriae Toronto; medium B—TSA; read-out: Minimum inhibitory concentration
Summary of the method: as §1

[13] = system: Streptococcus faecium IFO 3128; details: Enterococcus faecium, IFO3128; Streptococcus faecium IFO 3128; medium B—TSA; read-out: Minimum inhibitory concentration
Summary of the method: as §1

[14] = system: Streptococcus pyogenes S—8; details: Streptococcus pyogenes S—8; medium B—TSA; read-out: Minimum inhibitory concentration
Summary of the method: as §1

[15] = system: Escherichia coli NIHJ JC—2; details: Escherichia coli NIHJ JC—2; medium TSA; read-out: Minimum inhibitory concentration
Summary of the method: as §1

[16] = system: Pseudomonas aeruginosa U 31; details: U31; Pseudomonas aeruginosa U 31; medium TSA; read-out: Minimum inhibitory concentration
Summary of the method: as §1

[17] = system: Candida albicans TA; details: Candida albicans TA; medium TSA; read-out: Minimum inhibitory concentration
Summary of the method: as §1

[18] = system: Staphylococcus aureus FDA209P; details: Staphylococcus aureus, FDA209P, Staphylococcus aureus FDA209P, read-out: Minimum inhibitory concentration
Summary of the method: as §1

[19] = system: Bordetella bronchiseptica Sagami; details: Bordetella bronchiseptica Sagami; medium B—TSA; read-out: Minimum inhibitory concentration
Summary of the method: as §1

[20] = system: Streptococcus mitis America; details: Streptococcus mitis America; medium B—TSA; read-out: Minimum inhibitory concentration
Summary of the method: as §1

[21] = system: Streptococcus pneumoniae Type I; details: read-out: Minimum inhibitory concentration
Summary of the method: as §1

[22] = system: Enterobacter cloacae IFO 12937; details: IFO12937; Enterobacter cloacae IFO 12937; medium TSA; read-out: Minimum inhibitory concentration
Summary of the method: as §1

[23] = system: Streptococcus pyogenes E—14; details: read-out: Minimum inhibitory concentration
Summary of the method: as §1

[24] = system: Citrobacter freundii IFO 12681; details: IFO12681; Citrobacter freundii IFO 12681; medium TSA; read-out: Minimum inhibitory concentration
Summary of the method: as §1

[25] = Staphylococcus aureus 308A—1, medium TSA
[26] = Streptococcus pneumoniae Type I, medium B—TSA
[27] = Streptococcus pyogenes E—14, medium B—TSA

Structure (SMILES)	MIC [1]	MIC [2]	MIC [3]	MIC [4]	MIC [5]	MIC [6]	MIC [7]	MIC [9]	MIC [10]	MIC [11]	MIC [12]	MIC [13]	MIC [14]	MIC [15]	MIC [16]	MIC [17]	MIC ([18]; medium B—TSA)	MIC ([18]; medium TSA)	MIC [19]	MIC [20]	further results
CCCCCCCCN1CCN(C(=O)NC(C(=O)NC2CN(S(=O)(=O)O)C2=O)c2csc(N)n2)C(=O)C1=O (stereo not drawn) [Compound H, Sodium 3-[2-(4-n-octyl-2,3-dioxo-1-piperazinocarboxamido)-2-(2-amino-4-thiazolyl)-acetamido]-2-oxoazetidine-1-sulphonate]	50 µg/mL	> 100 µg/mL	12.5 µg/mL	6.25 µg/mL	3.13 µg/mL	12.5 µg/mL	25 µg/mL	12.5 µg/mL	12.5 µg/mL	6.25 µg/mL	0.78 µg/mL	> 100 µg/mL	1.56 µg/mL	12.5 µg/mL	50 µg/mL	> 100 µg/mL	12.5 µg/mL	6.25 µg/mL	> 100 µg/mL	25 µg/mL	MIC ([8]; Staphylococcus aureus): 3.13 µg/mL; MIC ([21]; Streptococcus pneumoniae): 3.13 µg/mL; MIC [22]: 50 µg/mL; MIC ([23]; Streptococcus pyogenes): 3.13 µg/mL; MIC [24]: 12.5 µg/mL
CCN1CCN(C(=O)NC(C(=O)NC2CN(S(=O)(=O)O)C2=O)c2csc(N)n2)C(=O)C1=O (stereo not drawn) [Compound D, Sodium 3-[2-(4-ethyl-2,3-dioxo-1-piperazinocarboxamido)-2-(2-amino-4-thiazolyl)-acetamido]-2-oxoazetidine-1-sulphonate]	50 µg/mL	> 100 µg/mL	0.2 µg/mL	12.5 µg/mL	0.1 µg/mL	25 µg/mL	25 µg/mL	0.78 µg/mL	3.13 µg/mL	0.1 µg/mL	3.13 µg/mL	> 100 µg/mL	3.13 µg/mL	0.39 µg/mL	> 100 µg/mL	> 100 µg/mL	12.5 µg/mL	12.5 µg/mL	> 100 µg/mL	25 µg/mL	MIC [8, 25]: 6.25 µg/mL; MIC [21, 26]: 6.25 µg/mL; MIC [22]: 25 µg/mL; MIC [23, 27]: 3.13 µg/mL; MIC [24]: 1.56 µg/mL
CCCCCCCCN1CCN(C(=O)N[C@@H](C(=O)NC2CN(S(=O)(=O)O)C2=O)c2ccccc2)C(=O)C1=O (stereo partly drawn) [Compound G, Sodium 3-[D-2-(4-n-octyl-2,3-dioxo-1-piperazinocarboxamido)-2-phenylacetamido]-2-oxoazetidine-1-sulphonate]	3.13 µg/mL	> 100 µg/mL	0.78 µg/mL	1.56 µg/mL	0.78 µg/mL	25 µg/mL	3.13 µg/mL	1.56 µg/mL	1.56 µg/mL	0.78 µg/mL	25 µg/mL	> 100 µg/mL	1.56 µg/mL	3.13 µg/mL	25 µg/mL	> 100 µg/mL	3.13 µg/mL	1.56 µg/mL	> 100 µg/mL	25 µg/mL	MIC [8, 25]: 0.78 µg/mL; MIC [21, 26]: 3.13 µg/mL; MIC [22]: 6.25 µg/mL; MIC [23, 27]: 1.56 µg/mL; MIC [24]: 3.13 µg/mL
